The results in this text go back to patent publication US12600726B2, “Antagonists of the muscarinic acetylcholine receptor M4” (Vanderbilt University, priority 2017, dated 2026).

The target of one test is T1, Human M4 (Homo sapiens, UniProt P08173).
T1 construct: expressed in transfected cells; host or cells: CHO-K1 (ATCC), stably expressing M4 and Gqi5
T1 sequence (P08173 1-479): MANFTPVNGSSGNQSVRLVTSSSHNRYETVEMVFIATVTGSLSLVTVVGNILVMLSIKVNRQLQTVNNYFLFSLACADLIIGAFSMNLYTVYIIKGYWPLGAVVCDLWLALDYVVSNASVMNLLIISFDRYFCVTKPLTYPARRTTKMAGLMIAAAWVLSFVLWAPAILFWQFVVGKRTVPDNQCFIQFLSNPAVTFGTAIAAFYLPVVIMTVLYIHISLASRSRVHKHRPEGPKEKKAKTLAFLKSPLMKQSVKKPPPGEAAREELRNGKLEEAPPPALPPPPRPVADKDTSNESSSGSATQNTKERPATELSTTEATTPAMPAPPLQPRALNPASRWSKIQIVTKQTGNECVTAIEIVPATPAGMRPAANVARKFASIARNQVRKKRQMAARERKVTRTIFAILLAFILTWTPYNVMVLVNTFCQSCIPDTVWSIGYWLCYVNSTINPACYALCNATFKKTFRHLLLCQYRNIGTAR
As to the kind of experiment: mAChR M4 cell-based functional calcium flux assay (human M4/Gqi5/CHO cells). Particulars: for Emin (human M4): % ACh maximum at 30 μM; for IC50: decrease of the response to an EC80 concentration of acetylcholine. In a few lines: (§1)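 CHO-K1 cells stably co-expressing M4 of the given species with chimeric Gqi5 were loaded with Fluo-4 AM and read for calcium flux. Compounds (10-point, 1:3 dilutions) were added first, followed by an acetylcholine EC20 at 143 s and an EC80 at 268 s. IC50 reflects the concentration-dependent fall in the EC80 response, fitted with a four-parameter logistic.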
In general terms: A change in cytosolic calcium serves as a functional read-out for many receptors and channels.

A further test has as its target T2, Rat M4 (Rattus norvegicus, UniProt P08485).
T2 construct: expressed in transfected cells; host or cells: CHO-K1 (ATCC), stably expressing M4 and Gqi5
T2 sequence (P08485 1-478): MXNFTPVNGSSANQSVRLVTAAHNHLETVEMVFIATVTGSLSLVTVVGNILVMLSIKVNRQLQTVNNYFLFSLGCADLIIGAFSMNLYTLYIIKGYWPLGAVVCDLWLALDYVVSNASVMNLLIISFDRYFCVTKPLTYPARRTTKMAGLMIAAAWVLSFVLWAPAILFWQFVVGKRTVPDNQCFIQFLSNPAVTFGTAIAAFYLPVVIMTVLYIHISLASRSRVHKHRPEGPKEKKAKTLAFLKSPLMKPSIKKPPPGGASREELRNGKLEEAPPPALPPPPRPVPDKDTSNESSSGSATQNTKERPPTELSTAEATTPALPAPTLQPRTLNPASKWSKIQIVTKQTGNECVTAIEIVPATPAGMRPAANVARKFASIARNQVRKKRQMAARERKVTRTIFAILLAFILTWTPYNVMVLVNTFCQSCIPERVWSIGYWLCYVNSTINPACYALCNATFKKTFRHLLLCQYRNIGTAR
Kind of test: mAChR M4 cell-based functional calcium flux assay (rat M4/Gqi5/CHO cells). Particulars: for Emin (rat M4): % ACh maximum at 30 μM; for IC50: decrease of the response to an EC80 concentration of acetylcholine. Summed up:
as §1

For orientation: IC50 means the concentration that inhibits the measured activity by half. In the case of `CC(C)(C)CCN1CCC2(CC1)CC2CNc1ccc(-c2cc(F)ccc2F)nn1` (stereo not shown) [Compound 30, 6-(2,5-difluorophenyl)-N-[[6-(3,3-dimethylbutyl)-6-azaspiro[2.5]octan-2-yl]methyl]pyridazin-3-amine], at Human M4, the “Emin (human M4)” value was 2.43% and the IC50 was found to be 31.2 nM. In addition, on Rat M4, the “Emin (rat M4)” value was determined as 3.26% and the IC50 is 107 nM.

In the case of `COc1ccc(F)cc1-c1ccc(NCC2CC23CCN(CCC(C)(C)C)CC3)nn1` (stereo not shown) [Compound 31, N-[[6-(3,3-dimethylbutyl)-6-azaspiro[2.5]octan-2-yl]methyl]-6-(5-fluoro-2-methoxy-phenyl)pyridazin-3-amine], at Human M4, the “Emin (human M4)” value stood at 3.03% and the IC50 was found to be 22.1 nM. Besides, on Rat M4, the “Emin (rat M4)” value is recorded as 2.87% and the IC50 came to 68.8 nM.

In the case of `CC(C)(C)CCN1CCC2(CC1)CC2CNc1ccc(-c2ccc(F)c(F)c2)nn1` (stereo not shown) [Compound 32, 6-(3,4-difluorophenyl)-N-[[6-(3,3-dimethylbutyl)-6-azaspiro[2.5]octan-2-yl]methyl]pyridazin-3-amine], on Human M4, the “Emin (human M4)” value was 2.71% and the IC50 is 74.9 nM. In addition, at Rat M4, the “Emin (rat M4)” value was found to be 2.80% and the half-inhibitory concentration (IC50) was determined as 168 nM.

For the molecule `CC(C)(C)CCN1CCC2(CC1)CC2CNc1ccc(-c2cc(F)cc(F)c2)nn1` (stereo not shown) [Compound 33, 6-(3,5-difluorophenyl)-N-[[6-(3,3-dimethylbutyl)-6-azaspiro[2.5]octan-2-yl]methyl]pyridazin-3-amine], on Human M4, the “Emin (human M4)” value was 2.48% and the half-inhibitory concentration (IC50) stood at 40 nM. On Rat M4, the “Emin (rat M4)” value came out at 2.09% and the IC50 stood at 110 nM.

For `CC(C)(C)CCN1CCC2(CC1)CC2CNc1ccc(-c2ccccc2)nn1` (stereo not shown) [Compound 34, N-[[6-(3,3-dimethylbutyl)-6-azaspiro[2.5]octan-2-yl]methyl]-6-phenyl-pyridazin-3-amine], on Human M4, the “Emin (human M4)” value is given as 2.24% and the IC50 was 17.8 nM. On Rat M4, the “Emin (rat M4)” value amounted to 2.88% and the half-inhibitory concentration (IC50) came to 86.2 nM.

Regarding `Cc1cnn(C)c1-c1ccc(NCC2CC23CCN(CCC(C)(C)C)CC3)nn1` (stereo not shown) [Compound 35, N-[[6-(3,3-dimethylbutyl)-6-azaspiro[2.5]octan-2-yl]methyl]-6-(2,4-dimethylpyrazol-3-yl)pyridazin-3-amine], on Human M4, the “Emin (human M4)” value was found to be 2.58% and the half-inhibitory concentration (IC50) was determined as 3.15 nM. Moreover, on Rat M4, the “Emin (rat M4)” value is given as 3.44% and the half-maximal inhibitory concentration (IC50) was determined as 47.8 nM.

For the molecule `Cc1nn(C)c(C)c1-c1ccc(NCC2CC23CCN(CCC(C)(C)C)CC3)nn1` (stereo not shown) [Compound 36, N-[[6-(3,3-dimethylbutyl)-6-azaspiro[2.5]octan-2-yl]methyl]-6-(1,3,5-trimethylpyrazol-4-yl)pyridazin-3-amine], at Human M4, the “Emin (human M4)” value turned out to be 2.61% and the 50% inhibitory concentration (IC50) is 6.1 nM. In addition, on Rat M4, the “Emin (rat M4)” value is recorded as 4.52% and the half-maximal inhibitory concentration (IC50) is 32.8 nM.

Take `Cc1noc(C)c1-c1ccc(NCC2CC23CCN(CCC(C)(C)C)CC3)nn1` (stereo not shown) [Compound 37, N-[[6-(3,3-dimethylbutyl)-6-azaspiro[2.5]octan-2-yl]methyl]-6-(3,5-dimethylisoxazol-4-yl)pyridazin-3-amine]: at Human M4, the “Emin (human M4)” value is 3.00% and the half-maximal inhibitory concentration (IC50) worked out at 5.29 nM. In addition, at Rat M4, the “Emin (rat M4)” value stood at 4.23% and the half-maximal inhibitory concentration (IC50) worked out at 59.3 nM.

Take `Cn1nccc1-c1ccc(NCC2CC23CCN(CCC(C)(C)C)CC3)nn1` (stereo not shown) [Compound 38, N-[[6-(3,3-dimethylbutyl)-6-azaspiro[2.5]octan-2-yl]methyl]-6-(2-methylpyrazol-3-yl)pyridazin-3-amine]: on Human M4, the “Emin (human M4)” value stood at 3.30% and the IC50 was determined as 3.71 nM. Also, at Rat M4, the “Emin (rat M4)” value came out at 4.05% and the IC50 turned out to be 24 nM.

Consider `Cn1nc(C(F)(F)F)cc1-c1ccc(NCC2CC23CCN(CCC(C)(C)C)CC3)nn1` (stereo not shown) [Compound 39, N-[[6-(3,3-dimethylbutyl)-6-azaspiro[2.5]octan-2-yl]methyl]-6-[2-methyl-5-(trifluoromethyl)pyrazol-3-yl]pyridazin-3-amine], for which, at Human M4, the “Emin (human M4)” value was 2.60% and the IC50 came to 13.7 nM. In addition, on Rat M4, the “Emin (rat M4)” value turned out to be 3.42% and the IC50 was found to be 58.1 nM.

In the case of `CC(=O)Nc1ccc(-c2ccc(NCC3CC34CCN(CCC(C)(C)C)CC4)nn2)cc1` (stereo not shown) [Compound 40, N-[4-[6-[[[6-(3,3-dimethylbutyl)-6-azaspiro[2.5]octan-2-yl]methyl]amino]pyridazin-3-yl]phenyl]acetamide], on Human M4, the “Emin (human M4)” value amounted to 2.97% and the IC50 worked out at 4.56 nM. For the same molecule, on Rat M4, the “Emin (rat M4)” value worked out at 3.40% and the half-inhibitory concentration (IC50) was 17.3 nM.

Regarding `CC(C)(C)CCN1CCC2(CC1)CC2CNc1ccc(-c2cccc(F)c2Cl)nn1` (stereo not shown) [Compound 41, 6-(2-chloro-3-fluoro-phenyl)-N-[[6-(3,3-dimethylbutyl)-6-azaspiro[2.5]octan-2-yl]methyl]pyridazin-3-amine], on Human M4, the “Emin (human M4)” value is recorded as 2.24% and the IC50 worked out at 16 nM. In addition, at Rat M4, the “Emin (rat M4)” value is 3.33% and the half-inhibitory concentration (IC50) is 105 nM.

Consider `Cc1ccsc1-c1ccc(NCC2CC23CCN(CCC(C)(C)C)CC3)nn1` (stereo not shown) [Compound 42, N-[[6-(3,3-dimethylbutyl)-6-azaspiro[2.5]octan-2-yl]methyl]-6-(3-methyl-2-thienyl)pyridazin-3-amine], for which, at Human M4, the “Emin (human M4)” value was determined as 2.88% and the IC50 was determined as 11.2 nM. Further, at Rat M4, the “Emin (rat M4)” value was 2.94% and the IC50 was found to be 49.7 nM.

`CC(C)(C)CCN1CCC2(CC1)CC2CNc1ccc(-c2cc(F)ccc2C#N)nn1` (stereo not shown) [Compound 43, 2-[6-[[[6-(3,3-dimethylbutyl)-6-azaspiro[2.5]octan-2-yl]methyl]amino]pyridazin-3-yl]-4-fluoro-benzonitrile]: at Human M4, the “Emin (human M4)” value worked out at 2.34% and the concentration for half-maximal inhibition (IC50) was 23 nM. At Rat M4, the “Emin (rat M4)” value is on record as 3.33% and the 50% inhibitory concentration (IC50) was 199 nM.

On to `CC(C)(C)CCN1CCC2(CC1)CC2CNc1ccc(-c2ccc3ccncc3c2)nn1` (stereo not shown) [Compound 44, N-[[6-(3,3-dimethylbutyl)-6-azaspiro[2.5]octan-2-yl]methyl]-6-(7-isoquinolyl)pyridazin-3-amine], for which, at Human M4, the “Emin (human M4)” value stood at 2.73% and the half-maximal inhibitory concentration (IC50) turned out to be 16 nM. Moreover, at Rat M4, the “Emin (rat M4)” value is listed as 3.41% and the half-inhibitory concentration (IC50) stood at 47.8 nM.

`CC(C)(C)CCN1CCC2(CC1)CC2CNc1ccc(-c2ccc3ncccc3c2)nn1` (stereo not shown) [Compound 45, N-[[6-(3,3-dimethylbutyl)-6-azaspiro[2.5]octan-2-yl]methyl]-6-(6-quinolyl)pyridazin-3-amine]: at Human M4, the “Emin (human M4)” value came to 2.89% and the IC50 came out at 9.08 nM. On Rat M4, the “Emin (rat M4)” value stood at 3.33% and the half-maximal inhibitory concentration (IC50) was 53.9 nM.

With `CC(C)(C)CCN1CCC2(CC1)CC2CNc1ccc(-c2ccc3c(c2)OCO3)nn1` (stereo not shown) [Compound 46, 6-(1,3-benzodioxol-5-yl)-N-[[6-(3,3-dimethylbutyl)-6-azaspiro[2.5]octan-2-yl]methyl]pyridazin-3-amine], on Human M4, the “Emin (human M4)” value amounted to 3.06% and the concentration for half-maximal inhibition (IC50) amounted to 12.2 nM. In addition, at Rat M4, the “Emin (rat M4)” value amounted to 3.11% and the IC50 came to 117 nM.

Regarding `CC(C)(C)CCN1CCC2(CC1)CC2CNc1ccc(-c2ccc3ccccc3c2)nn1` (stereo not shown) [Compound 47, N-[[6-(3,3-dimethylbutyl)-6-azaspiro[2.5]octan-2-yl]methyl]-6-(2-naphthyl)pyridazin-3-amine], at Human M4, the “Emin (human M4)” value was determined as 2.97% and the half-maximal inhibitory concentration (IC50) was 208 nM. At Rat M4, the “Emin (rat M4)” value is 2.90% and the 50% inhibitory concentration (IC50) was found to be 390 nM.

For `CC(C)(C)CCN1CCC2(CC1)CC2CNc1ccc(-c2ccccc2OC(F)(F)F)nn1` (stereo not shown) [Compound 48, N-[[6-(3,3-dimethylbutyl)-6-azaspiro[2.5]octan-2-yl]methyl]-6-[2-(trifluoromethoxy)phenyl]pyridazin-3-amine], at Human M4, the “Emin (human M4)” value is reported as 2.63% and the concentration for half-maximal inhibition (IC50) was determined as 64.4 nM. At Rat M4, the “Emin (rat M4)” value came out at 2.26% and the half-inhibitory concentration (IC50) stood at 387 nM.
